In PubChem BioAssay (NCI):
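All cell lines were grown in 96-well plates and treated with compound for 48 hours. GI50 = concentration required for 50% inhibition of growth. TGI marks complete inhibition of growth.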

Legend:
Assay in all cases: NCI-60 cell line screen, 48 h
XF 498 CNS = system: XF 498 CNS
DLD-1 colon = system: DLD-1 colon
LXFL 529 NSCLC = system: LXFL 529 NSCLC
MALME-3M melanoma = system: MALME-3M melanoma
UACC-257 melanoma = system: UACC-257 melanoma
SF-539 CNS = system: SF-539 CNS
SNB-78 CNS = system: SNB-78 CNS
HCT-15 colon = system: HCT-15 colon
BT-549 breast = system: BT-549 breast
HS 578T breast = system: HS 578T breast

Row | SMILES | TGI (XF 498 CNS) | TGI (DLD-1 colon) | TGI (LXFL 529 NSCLC) | TGI (MALME-3M melanoma) | TGI (UACC-257 melanoma) | TGI (SF-539 CNS) | TGI (SNB-78 CNS) | TGI (HCT-15 colon) | TGI (BT-549 breast) | TGI (HS 578T breast) | GI50 (HCT-15 colon) | GI50 (DLD-1 colon) | GI50 (LXFL 529 NSCLC) | GI50 (MALME-3M melanoma) | GI50 (SF-539 CNS) | GI50 (UACC-257 melanoma) | GI50 (BT-549 breast) | GI50 (HS 578T breast)
1 | CCCCCCCCCCCCCCCC(=O)OCC1OC(n2cc(F)c(=O)[nH]c2=O)C(N)C(O)C1O (configuration not stated) | 33.5 µM | 37.1 µM | 34.3 µM | 38.2 µM | 40.7 µM | 34.8 µM |  |  |  |  |  |  |  |  |  |  |  | 
2 | O=C(c1ccc(Cl)cc1Cl)C1[C@H]2C(=O)N(c3ccc(Cc4ccc(N5C(=O)[C@@H]6ON(c7ccccc7)C(C(=O)c7ccc(Cl)cc7Cl)[C@@H]6C5=O)cc4)cc3)C(=O)[C@H]2ON1c1ccccc1 (some centres not stated) |  | > 50 µM | > 50 µM | > 50 µM | > 50 µM | > 50 µM | > 50 µM | > 50 µM |  |  |  |  |  |  |  |  |  | 
3 | CCOC(C[C@H](O[Si](C)(C)C(C)(C)C)[C@H]1COC(=S)S1)OCC | 66.7 µM |  | > 100 µM | > 100 µM | > 100 µM | > 100 µM |  | > 100 µM |  |  |  |  |  |  |  |  |  | 
4 | O=C1/C(=C/c2ccccc2)CN(C(=O)CCN2CCOCC2)C/C1=C\c1ccccc1 |  | 4.28 µM | 6.35 µM | 6.32 µM | 4.99 µM | 4.2 µM | 27.1 µM | 4.96 µM | 4.71 µM | 13.1 µM |  |  |  |  |  |  |  | 
5 | CC(C)(C)C(=O)OCC1C(=O)OCC1C(=O)N1Cc2cc3ccccc3nc2C1 (configuration not stated) |  | 3.15 µM | 2.97 µM | 2.98 µM | 13.4 µM | 12 µM | 4.57 µM | 6.36 µM | 8.83 µM | 64.3 µM |  |  |  |  |  |  |  | 
6 | CC(=O)[CH-]C(=O)c1ccccc1.CC(=O)[CH-]C(=O)c1ccccc1.CC[O-].CC[O-].[Hf+4] |  | > 100 µM | > 100 µM | > 100 µM |  | > 100 µM |  | > 100 µM |  |  | > 100 µM | > 100 µM | > 100 µM | > 100 µM | > 100 µM |  |  | 
7 | CCCCCCC[CH2][Sn]([CH2]CCCCCCC)([O]c1cccc2cccnc12)[O]c1cccc2cccnc12 |  | 2.83 µM | 2.3 µM | 2.9 µM | 4.56 µM | 4.68 µM |  | 10.8 µM |  |  | 2.53 µM | 1.31 µM | 0.822 µM | 1.44 µM | 2.05 µM | 1.56 µM |  | 
8 | CN(C(=O)C12C3C4C1C1C2C3C41C(N)=O)C(C)(C)C (configuration not stated) | > 100 µM |  | > 100 µM | > 100 µM |  | > 100 µM | > 100 µM |  |  |  |  |  |  |  |  |  |  | 
9 | CCOC(=O)CC[C@H](NC(=O)c1nc[nH]c1[N+](=O)[O-])C(=O)OCC |  | > 100 µM | > 100 µM | > 100 µM | > 100 µM | > 100 µM | > 100 µM | > 100 µM |  |  |  |  |  |  |  |  |  | 
10 | O=C(Nc1ccc(Br)cc1F)c1cc(I)ccc1O |  |  |  | 5.56 µM | 6.88 µM | 12.1 µM |  | 12.7 µM | 6.43 µM | 9.1 µM | 2.94 µM |  |  | 2.07 µM | 2.8 µM | 2.43 µM | 2.26 µM | 2.43 µM
11 | COc1cc2ccnc3c2c(c1OC)-c1coc(SC)c1-3 |  | > 100 µM | > 100 µM | > 100 µM | > 100 µM | > 100 µM | > 100 µM | > 100 µM |  |  |  |  |  |  |  |  |  | 
12 | NC(=O)CN(CC(N)=O)C(N)=O | > 100 µM |  | > 100 µM | > 100 µM | > 100 µM | > 100 µM | > 100 µM | > 100 µM |  |  |  |  |  |  |  |  |  | 
13 | N/N=C(/C(=O)Nc1cccc(Cl)c1)C(C(=O)c1ccc(O)cc1O)C1OC(=O)c2ccccc21 (configuration not stated) |  |  | > 100 µM | > 100 µM | > 100 µM | > 100 µM | > 100 µM | > 100 µM |  |  |  |  |  |  |  |  |  | 
14 | CCOC(=O)/C(C1=NCCN1)=C(\O)c1ccccc1 | > 100 µM | > 100 µM | > 100 µM | > 100 µM | > 100 µM | > 100 µM |  | > 100 µM |  |  |  |  |  |  |  |  |  | 
15 | O=C(/C=C/Sc1cc(C(F)(F)F)cc(C(F)(F)F)c1)c1ccc(Cl)cc1 |  |  |  | 23.4 µM | 27.5 µM | 30.9 µM |  | 11.6 µM | 23.8 µM | 43.7 µM | 3.04 µM |  |  | 9.13 µM | 14.4 µM | 14.1 µM | 11.5 µM | 16.5 µM
16 | CC(CN(C)C)/C(=N\Nc1ccccc1)c1ccccc1 (configuration not stated) |  | > 100 µM |  | 29.1 µM | 15.3 µM | 0.774 µM | 83 µM | 11.1 µM |  |  |  |  |  |  |  |  |  | 
17 | NCCCC[C@@H]1NC(=O)[C@H]2CCCN2C(=O)[C@H](Cc2ccccc2)CNC(=O)[C@H](Cc2ccccc2)NC1=O |  |  |  | > 37.5 µM | > 37.5 µM | > 37.5 µM |  | > 37.5 µM | > 37.5 µM | > 37.5 µM | > 37.5 µM |  |  | > 37.5 µM | > 37.5 µM | > 37.5 µM | > 37.5 µM | > 37.5 µM
18 | O=C(O)CC[C@H](NC(=O)c1ccc(-n2nc3ccc(O)cc3nc2=O)cc1)C(=O)O |  | > 100 µM | > 100 µM | > 100 µM | > 100 µM | > 100 µM | > 100 µM | > 100 µM |  |  |  |  |  |  |  |  |  | 
